The source made the active and inactive calls. Rule as the data show it, for most assays here: actives have a measured EC50 and inactives only a lower limit.
Columns and labels:
[1] = molecular target: T1, Neuropeptide Y receptor type 2 (Homo sapiens, UniProt P49146); test: IC50 for human NPY-Y2 blockade – cell-based, counter-screen for NPY-Y1 antagonist project, dose response (AID 1278); type: functional
T1 sequence (P49146 whole entry): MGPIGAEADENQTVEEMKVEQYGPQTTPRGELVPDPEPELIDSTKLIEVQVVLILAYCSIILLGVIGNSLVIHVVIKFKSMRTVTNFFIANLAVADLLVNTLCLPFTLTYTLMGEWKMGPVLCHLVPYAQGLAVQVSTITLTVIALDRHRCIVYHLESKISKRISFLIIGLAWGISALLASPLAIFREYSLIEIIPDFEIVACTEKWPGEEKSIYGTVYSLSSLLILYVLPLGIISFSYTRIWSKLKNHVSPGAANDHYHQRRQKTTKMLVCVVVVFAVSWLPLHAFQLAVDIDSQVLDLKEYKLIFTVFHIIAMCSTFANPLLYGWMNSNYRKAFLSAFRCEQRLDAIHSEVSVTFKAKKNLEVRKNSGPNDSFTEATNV

[2] = molecular target: T2, Neuropeptide Y receptor type 1 (Homo sapiens, UniProt P25929); test: IC50 of human NPY-Y1 blockers – cell-based, dose response (AID 1277); type: functional
T2 sequence (P25929 whole entry): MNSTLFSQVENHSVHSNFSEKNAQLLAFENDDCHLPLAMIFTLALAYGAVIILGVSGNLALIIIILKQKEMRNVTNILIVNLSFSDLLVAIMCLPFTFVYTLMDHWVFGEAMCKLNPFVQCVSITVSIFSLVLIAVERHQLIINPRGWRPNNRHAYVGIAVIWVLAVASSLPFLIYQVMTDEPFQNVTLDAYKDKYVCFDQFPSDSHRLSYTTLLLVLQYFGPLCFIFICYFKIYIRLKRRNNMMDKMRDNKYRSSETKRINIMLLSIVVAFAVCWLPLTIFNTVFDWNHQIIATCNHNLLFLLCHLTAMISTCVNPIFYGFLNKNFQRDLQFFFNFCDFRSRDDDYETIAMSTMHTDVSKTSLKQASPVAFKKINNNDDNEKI

[3] = Luminescence Cell-Based Dose Retest to Confirm Inhibitors of Cancer Stem Cells. [Related pubchem assays (depositor defined):AID2717, AID2721]; type: functional; conditions: Homo sapiens
Trypsin = Trypsin (Sus scrofa, UniProt P00761); test: trypsin protease activity blockade – biochemical, quenched peptide fluorescence, cherry-pick, selectivity assay for Rce1 protease inhibitor project, dose response (AID 488789)
Chain of Trypsin (P00761 whole entry): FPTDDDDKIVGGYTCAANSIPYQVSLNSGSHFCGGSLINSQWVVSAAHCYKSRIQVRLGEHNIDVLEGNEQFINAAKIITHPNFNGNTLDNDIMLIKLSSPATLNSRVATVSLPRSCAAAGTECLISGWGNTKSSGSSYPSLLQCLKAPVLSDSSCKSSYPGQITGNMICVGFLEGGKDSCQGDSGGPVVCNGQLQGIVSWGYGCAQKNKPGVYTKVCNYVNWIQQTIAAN

CAAX prenyl protease 2 = molecular target: T3, CAAX prenyl protease 2 (Saccharomyces cerevisiae S288c, UniProt Q03530); type: biochemical
T3 sequence (Q03530 whole entry): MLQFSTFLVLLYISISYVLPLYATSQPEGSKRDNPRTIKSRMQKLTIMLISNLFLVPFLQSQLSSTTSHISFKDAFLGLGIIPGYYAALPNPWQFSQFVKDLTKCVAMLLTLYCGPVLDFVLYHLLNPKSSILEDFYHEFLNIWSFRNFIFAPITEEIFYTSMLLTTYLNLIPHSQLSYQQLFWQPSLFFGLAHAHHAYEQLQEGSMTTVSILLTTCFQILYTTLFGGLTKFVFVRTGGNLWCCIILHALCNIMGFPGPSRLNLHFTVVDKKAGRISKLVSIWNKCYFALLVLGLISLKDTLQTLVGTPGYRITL

[4] = molecular target: Potassium voltage-gated channel subfamily KQT member 2 (Rattus norvegicus, UniProt O88943, W236L); test: potentiation of rat KCNQ2 current – cell-based, automated electrophysiology, mechanism study for KCNQ2 potentiator project, dose response (AID 2603); type: functional
Chain of Potassium voltage-gated channel subfamily KQT member 2 (O88943 whole entry W236L): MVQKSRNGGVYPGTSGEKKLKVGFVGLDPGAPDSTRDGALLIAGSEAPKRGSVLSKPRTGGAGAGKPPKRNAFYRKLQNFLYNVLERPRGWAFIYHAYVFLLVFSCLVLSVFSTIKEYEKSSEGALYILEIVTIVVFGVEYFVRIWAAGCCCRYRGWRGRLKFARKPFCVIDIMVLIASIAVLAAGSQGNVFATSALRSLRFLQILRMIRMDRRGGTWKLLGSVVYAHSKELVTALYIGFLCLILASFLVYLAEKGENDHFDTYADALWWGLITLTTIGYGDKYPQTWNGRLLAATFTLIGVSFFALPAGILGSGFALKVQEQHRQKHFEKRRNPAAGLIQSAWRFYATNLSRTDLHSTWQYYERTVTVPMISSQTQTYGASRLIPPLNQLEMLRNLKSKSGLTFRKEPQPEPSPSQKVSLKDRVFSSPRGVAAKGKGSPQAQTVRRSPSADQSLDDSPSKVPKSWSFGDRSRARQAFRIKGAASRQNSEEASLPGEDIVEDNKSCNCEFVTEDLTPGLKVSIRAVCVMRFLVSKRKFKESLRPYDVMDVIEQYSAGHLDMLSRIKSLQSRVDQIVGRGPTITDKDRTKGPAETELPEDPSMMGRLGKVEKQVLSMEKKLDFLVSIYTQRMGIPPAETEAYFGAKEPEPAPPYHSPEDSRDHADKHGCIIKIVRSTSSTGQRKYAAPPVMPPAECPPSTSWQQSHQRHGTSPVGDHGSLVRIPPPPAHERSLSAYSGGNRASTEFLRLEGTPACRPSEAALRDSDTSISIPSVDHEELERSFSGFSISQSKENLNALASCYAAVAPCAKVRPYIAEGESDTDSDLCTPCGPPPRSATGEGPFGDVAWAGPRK

[5] = luciferase reporter signal suppression in cells – H4 neuroglioma cells, luminescence, dose response (AID 1990); type: functional, cell-based
[6] = luciferase reporter signal reduction – luminescence, H4-C neuroglioblastoma cells, dose response (AID 2458); type: functional, cell-based;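 also: H4 neuroglioblastoma cells stably carrying a luciferase reporter gene fusion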
[7] = molecular target: T4, RNA-binding protein pos-1 (Caenorhabditis elegans, UniProt G5EF15); test: disruptors of C. elegans POS-1 RNA interaction – biochemical, fluorescence polarization, dose response (AID 1964);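 also: purified POS-1 fused to maltose binding protein made in E. coli; potency of compounds blocking POS-1 binding to fluorescent RNA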
T4 sequence (G5EF15 whole entry): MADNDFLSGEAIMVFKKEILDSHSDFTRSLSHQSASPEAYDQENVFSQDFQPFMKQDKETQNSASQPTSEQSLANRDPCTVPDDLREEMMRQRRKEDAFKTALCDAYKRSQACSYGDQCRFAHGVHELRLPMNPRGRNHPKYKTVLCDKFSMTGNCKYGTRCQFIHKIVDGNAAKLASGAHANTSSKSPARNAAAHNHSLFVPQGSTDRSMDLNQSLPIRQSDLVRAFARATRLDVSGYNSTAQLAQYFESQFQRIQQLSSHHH

BJ [8] = test: BJ-TERT fibroblast viability loss – cell-based, RAS-independent, luminescence, dose response (AID 1933); type: functional; conditions: Homo sapiens
cells = type: functional, cell-based
[9] = Luminescence Cell-Based Dose Response HTS to Identify Inhibitors of 5'UTR Stem-Loop Driven Prion Protein mRNA Translation in H4 Neuroglioblastoma Cells. [Related pubchem assays: 1827 (Project Summary), 1813 (Primary HTS)]; type: functional
[10] = molecular target: T5, Zinc finger protein mex-5 (Caenorhabditis elegans, UniProt Q9XUB2); test: potency of MEX-5 RNA-binding blockers – biochemical, C. elegans, fluorescence polarization, dose response (AID 1960)
T5 sequence (Q9XUB2 whole entry): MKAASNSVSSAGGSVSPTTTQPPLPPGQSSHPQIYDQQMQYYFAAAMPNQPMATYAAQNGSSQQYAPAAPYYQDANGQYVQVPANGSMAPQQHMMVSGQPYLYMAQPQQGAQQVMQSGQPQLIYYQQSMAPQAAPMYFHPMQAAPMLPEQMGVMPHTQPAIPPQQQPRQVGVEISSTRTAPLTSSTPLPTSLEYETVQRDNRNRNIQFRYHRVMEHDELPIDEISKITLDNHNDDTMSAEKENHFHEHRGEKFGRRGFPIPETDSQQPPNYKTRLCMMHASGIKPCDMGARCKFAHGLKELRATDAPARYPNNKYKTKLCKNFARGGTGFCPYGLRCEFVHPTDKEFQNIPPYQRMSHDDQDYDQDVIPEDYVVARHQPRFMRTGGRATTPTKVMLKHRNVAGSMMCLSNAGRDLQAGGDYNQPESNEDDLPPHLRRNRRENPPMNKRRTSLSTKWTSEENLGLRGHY

[11] = alpha-synuclein stem-loop luciferase translation blockers – H4 neuroglioma cells, luminescence, confirmation (AID 1988); type: functional, cell-based
BJ [12] = test: cells; type: functional, cell-based; conditions: Homo sapiens
[13] = Luminescence-based dose response cell-based high throughput screening assay for cytotoxic compounds using the IEC-6 intestinal epithelial cell line. [Related pubchem assays: 1858 (Summary AID.), 1825 (Counterscreen.), 1907 (Confirmation screen.)]; type: functional
[14] = molecular target: T6, Kappa-type opioid receptor (Homo sapiens, UniProt P41145); type: functional
T6 sequence (P41145 whole entry): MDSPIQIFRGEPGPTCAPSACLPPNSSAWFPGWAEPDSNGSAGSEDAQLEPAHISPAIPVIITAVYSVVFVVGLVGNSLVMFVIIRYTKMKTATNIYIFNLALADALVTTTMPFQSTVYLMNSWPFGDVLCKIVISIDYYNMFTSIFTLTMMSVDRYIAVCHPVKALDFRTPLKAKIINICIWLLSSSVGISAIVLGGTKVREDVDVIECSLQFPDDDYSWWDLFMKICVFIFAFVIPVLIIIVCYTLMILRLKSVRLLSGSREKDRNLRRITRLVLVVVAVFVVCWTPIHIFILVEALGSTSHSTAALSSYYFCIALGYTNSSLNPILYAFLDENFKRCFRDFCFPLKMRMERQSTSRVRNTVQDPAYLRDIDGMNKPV

Beta-galactosidase [15] = molecular target: T7, Beta-galactosidase (Escherichia coli, UniProt Q8VNN2); type: functional
T7 sequence (Q8VNN2 whole entry): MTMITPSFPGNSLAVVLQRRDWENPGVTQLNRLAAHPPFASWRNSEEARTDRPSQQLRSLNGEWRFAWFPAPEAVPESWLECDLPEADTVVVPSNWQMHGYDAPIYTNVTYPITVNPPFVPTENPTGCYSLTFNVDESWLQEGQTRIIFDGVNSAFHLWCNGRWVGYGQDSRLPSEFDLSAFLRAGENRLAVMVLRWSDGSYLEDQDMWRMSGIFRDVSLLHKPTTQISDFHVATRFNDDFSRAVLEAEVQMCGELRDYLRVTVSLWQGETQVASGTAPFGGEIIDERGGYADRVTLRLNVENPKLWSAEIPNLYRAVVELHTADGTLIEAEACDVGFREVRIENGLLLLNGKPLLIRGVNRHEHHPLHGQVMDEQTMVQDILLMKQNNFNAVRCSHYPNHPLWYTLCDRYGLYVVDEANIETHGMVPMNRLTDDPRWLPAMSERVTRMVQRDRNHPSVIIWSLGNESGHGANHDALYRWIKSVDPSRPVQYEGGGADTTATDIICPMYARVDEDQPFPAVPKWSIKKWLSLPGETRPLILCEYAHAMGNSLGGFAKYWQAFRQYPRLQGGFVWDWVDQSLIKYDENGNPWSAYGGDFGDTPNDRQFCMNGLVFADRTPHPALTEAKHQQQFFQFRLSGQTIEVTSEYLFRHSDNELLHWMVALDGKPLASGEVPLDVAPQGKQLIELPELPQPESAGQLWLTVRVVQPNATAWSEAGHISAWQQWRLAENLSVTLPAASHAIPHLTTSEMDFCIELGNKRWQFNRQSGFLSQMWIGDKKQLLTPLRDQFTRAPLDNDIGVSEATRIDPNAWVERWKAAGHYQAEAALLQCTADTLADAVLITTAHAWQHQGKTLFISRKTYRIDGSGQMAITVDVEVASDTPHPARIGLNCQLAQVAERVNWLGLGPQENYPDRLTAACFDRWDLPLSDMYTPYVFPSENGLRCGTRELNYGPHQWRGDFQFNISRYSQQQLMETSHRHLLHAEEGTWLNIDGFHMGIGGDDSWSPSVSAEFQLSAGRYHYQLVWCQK

BJ [16] = test: BJ-TERT-LT-ST fibroblast viability loss – cell-based, RAS-independent, luminescence, dose response (AID 1935); type: functional; conditions: Homo sapiens;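 also: BJ fibroblasts immortalized with TERT plus LT and ST oncogenes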
[17] = molecular target: T6, Kappa-type opioid receptor; type: functional; remark: listed apart in the source
[18] = DRD fibroblast viability loss – cell-based, non-viral oncogenic, luminescence, dose response (AID 1934); type: functional; conditions: Homo sapiens
[19] = alpha-synuclein stem-loop translation blockers – luminescence, H4 neuroglioblastoma cells, dose confirmation, confirmation (AID 2454); type: functional, cell-based;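 also: H4 neuroglioblastoma cells carrying an alpha-synuclein 5'UTR luciferase reporter; potency for inhibition of the luciferase signal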
Nonstructural protein 1 = Nonstructural protein 1 (Influenza A virus, UniProt Q194T2); type: functional, Influenza A virus (A/California/07/2009(H1N1))
Chain of Nonstructural protein 1 (Q194T2 whole entry): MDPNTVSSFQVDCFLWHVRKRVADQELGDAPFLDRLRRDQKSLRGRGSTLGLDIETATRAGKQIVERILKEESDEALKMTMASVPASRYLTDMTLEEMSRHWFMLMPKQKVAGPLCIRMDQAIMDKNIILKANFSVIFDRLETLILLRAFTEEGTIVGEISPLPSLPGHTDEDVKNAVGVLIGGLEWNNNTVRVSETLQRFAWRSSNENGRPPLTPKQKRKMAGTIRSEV

[20] = molecular target: Heat shock protein HSP 90-alpha (Homo sapiens, UniProt P07900); type: functional, organism-based
BJ [21] = test: growth inhibition of engineered Ras-driven BJ cells – cell-based, alamar blue fluorescence, cherrypicked samples, dose response (AID 2631); type: functional; conditions: Homo sapiens;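 also: confirmatory dose-response assay in RAS-dependent BJ fibroblasts engineered with TERT, LT and ST, with cytotoxicity read by fluorescence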
Beta-galactosidase [22] = molecular target: T7, Beta-galactosidase; test: Dose response counterscreen for EBI2 assay utilizing the enzyme, b-galactosidase.; type: functional

**Q.** Which results are given for `Cc1nc(N2CCCCC2)c2c(C)c(C(=O)Nc3ccccc3C(F)(F)F)sc2n1`?
**A.** IC50 [1]: 6.66 µM (active); IC50 [2]: 7.1 µM (active); AC50 [3]: 2.18 µM (active); AC50 (Trypsin): > 100 µM (inactive); AC50 (CAAX prenyl protease 2): 13.4 µM (active)

**Q.** Which EC50 [4] does the source give for `O=C(Nc1cccc(OC(F)(F)F)c1)c1ccc(Br)o1` here?
**A.** 13.8 µM (active)

**Q.** Which IC50 [1] does the source give for `CCCCC(O)(CCCC)C(=O)NN(C(=O)OC)c1ccccc1` here?
**A.** > 35 µM (not active)

**Q.** What about the IC50 [2] of the same compound?
**A.** > 35 µM (not active)

**Q.** Which results are given for `C/C(=N\Nc1ncnc2sc(C)c(C)c12)c1ccccn1`?
**A.** EC50 [5]: 244 nM (active); EC50 [6]: 222 nM (active); EC50 [7]: 23.3 µM (inconclusive); EC50 (BJ [8]): 711 nM (inconclusive); EC50 (cells): 472 nM (active); EC50 [9]: < 100 nM (active); EC50 [10]: 46.7 µM (inconclusive); EC50 [11]: < 100 nM (active); EC50 (BJ [12]): 966 nM (inconclusive); IC50 [13]: 76.2 nM (active); IC50 [14]: > 31.5 µM (inactive); EC50 (Beta-galactosidase [15]): > 31.5 µM (inactive); EC50 (BJ [16]): 754 nM (inconclusive); IC50 [17]: > 32 µM; EC50 [18]: 2.02 µM (inconclusive); EC50 [19]: 378 nM (active); IC50 (Nonstructural protein 1): 19.3 µM (active); AC50 [20]: 2.42 µM (active); EC50 (BJ [21]): < 104 nM (active); IC50 (Beta-galactosidase [22]): > 80 µM (inactive)
